{
  "source": "patent US20070027150A1",
  "about": "(priority 2005, published 2007)",
  "target": "His-tagged N-terminal ATP binding domain (amino acid residues 9-236) of HSP90α (Homo sapiens, UniProt P07900)",
  "test": "HSP90 inhibitor binding potency: TRF competition binding assay",
  "settings": "Table I; read-out: Hsp90 IC50 Range",
  "how_it_was_run": "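His-tagged HSP90α N-domain (residues 9-236) incubated 2 h at room temperature with biotinylated radicicol and increasing compound in 50 mM HEPES, 6 mM MgCl2, 20 mM KCl, 0.1% BSA. Bound tracer captured on streptavidin plates, detected with europium anti-His antibody by time-resolved fluorescence; IC50 derived.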",
  "note": "pIC50: −log10 of the molar value.",
  "data": [
    {"smiles": "Cc1nc(N)nc2c1C(=O)CC(c1ccc(F)cc1-c1cccnc1F)C2", "note": "(stereo not shown) [Compound 87, 2-amino-7-[4-fluoro-2-(2-fluoropyridin-3-yl)phenyl]-4-methyl-7,8-dihydroquinazolin-5(6H)-one]", "values": [
      {"measurement": "pIC50", "value": "> 6.00"}
    ]}
  ]
}
